Source: publication PMC11348465, “Pharmacochemical Study of Multitarget Amino Acids’ Hybrids: Design, Synthesis, In vitro, and In silico Studies” (Medicinal Chemistry (Shariqah (United Arab Emirates), 2024)

How the values were obtained:
[1] = Inhibition of linoleic acid peroxidation (AAPH-induced)
Protocol: Our group evaluated the in vitro study as reported previously. Ten 16 mM sodium linoleate solution microliters were added to the UV cuvette containing 93 µL of a 0.05 M phosphate buffer, pH 7.4, and 10 µL of the tested compounds (final concentration 100 µM). The oxidation reaction started at 37 °C under air by adding 50 µL of the free radical initiator AAPH (40 mM). Oxidation was carried out and monitored at 234 nm. DMSO under the same conditions was used as a negative control. Trolox was used as the appropriate standard (positive control). The results are given in Table S1 in the supplementary material.
We used the water-soluble 2, 2’-azobis(2-amidinopropane) hydrochloride (AAPH) to generate in vitro peroxyl radicals through spontaneous thermal decomposition, which resembles cellular lipid peroxidation due to the activity of the undertaken radicals. The anti-lipid peroxidation activities were compared to a well-known antioxidant, i.e., Trolox (Table S1 in the supplementary material). […] In general, the anti-lipid peroxidation ranged from 8-99%. Except for acids 11, 12, 17, 19, 21, 22, 24, 25, and 28, which present high antioxidant activities (on the high % level), the other cinnamic acids present low or medium activity.

[2] = target: T1, soybean lipoxygenase (LOX-1) (Glycine max, UniProt P08170); test: Soybean lipoxygenase inhibition study; type: biochemical; conditions: for LOX inhibition (%): % inhibition at 100 µM; for IC50: read-out: LOX inhibition (IC50)
T1 construct: purchased Sigma Chemical, Co. (St Louis, MO, USA)
T1 sequence (P08170 1-839): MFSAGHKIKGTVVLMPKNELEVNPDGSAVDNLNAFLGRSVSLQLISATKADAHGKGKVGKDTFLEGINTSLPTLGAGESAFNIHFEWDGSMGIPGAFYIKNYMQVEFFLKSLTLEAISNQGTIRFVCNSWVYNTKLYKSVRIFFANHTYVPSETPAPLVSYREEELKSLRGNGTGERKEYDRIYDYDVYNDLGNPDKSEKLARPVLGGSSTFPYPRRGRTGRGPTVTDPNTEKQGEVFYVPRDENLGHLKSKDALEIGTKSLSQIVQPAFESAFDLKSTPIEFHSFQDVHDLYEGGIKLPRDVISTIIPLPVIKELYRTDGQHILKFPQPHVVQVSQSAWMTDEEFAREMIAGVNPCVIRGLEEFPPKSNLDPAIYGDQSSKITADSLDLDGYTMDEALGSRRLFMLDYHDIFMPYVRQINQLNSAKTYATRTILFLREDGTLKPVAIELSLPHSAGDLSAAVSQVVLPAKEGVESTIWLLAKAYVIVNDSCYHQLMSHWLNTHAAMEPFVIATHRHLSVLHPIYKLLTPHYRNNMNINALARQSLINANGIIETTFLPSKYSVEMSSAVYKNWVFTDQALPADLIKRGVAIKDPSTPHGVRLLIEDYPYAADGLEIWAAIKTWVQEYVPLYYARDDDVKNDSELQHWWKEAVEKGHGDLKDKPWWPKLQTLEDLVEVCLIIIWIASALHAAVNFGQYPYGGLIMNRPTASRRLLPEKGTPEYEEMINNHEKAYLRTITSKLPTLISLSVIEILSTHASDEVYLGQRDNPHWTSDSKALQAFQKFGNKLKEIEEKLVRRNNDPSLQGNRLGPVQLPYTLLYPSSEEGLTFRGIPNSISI
Protocol: Our group evaluated an in vitro study as reported previously. The tested hybrids were incubated at room temperature with sodium linoleate (100 µM) and 200 µL of enzyme solution (1/9 X 10^-4 w/v in saline). […] Different concentrations were used for the determination of IC50. A blank determination was used as a negative control.
Due to the limited work on sufficiently purified human ALOX-5 isoenzyme, most of the published research was performed on the soybean homolog. […] This study used the soybean isoenzyme LOX-1, which exerts maximal activity at pH 9.0 [72].

[3] = target: T2, ovine COX-2 (Ovis aries, UniProt P79208); test: Cyclooxygenase-2 inhibition study; type: biochemical; conditions: for IC50: read-out: COX-2 inhibition (IC50)
T2 construct: purchased Cayman (USA)
T2 sequence (P79208 17-603): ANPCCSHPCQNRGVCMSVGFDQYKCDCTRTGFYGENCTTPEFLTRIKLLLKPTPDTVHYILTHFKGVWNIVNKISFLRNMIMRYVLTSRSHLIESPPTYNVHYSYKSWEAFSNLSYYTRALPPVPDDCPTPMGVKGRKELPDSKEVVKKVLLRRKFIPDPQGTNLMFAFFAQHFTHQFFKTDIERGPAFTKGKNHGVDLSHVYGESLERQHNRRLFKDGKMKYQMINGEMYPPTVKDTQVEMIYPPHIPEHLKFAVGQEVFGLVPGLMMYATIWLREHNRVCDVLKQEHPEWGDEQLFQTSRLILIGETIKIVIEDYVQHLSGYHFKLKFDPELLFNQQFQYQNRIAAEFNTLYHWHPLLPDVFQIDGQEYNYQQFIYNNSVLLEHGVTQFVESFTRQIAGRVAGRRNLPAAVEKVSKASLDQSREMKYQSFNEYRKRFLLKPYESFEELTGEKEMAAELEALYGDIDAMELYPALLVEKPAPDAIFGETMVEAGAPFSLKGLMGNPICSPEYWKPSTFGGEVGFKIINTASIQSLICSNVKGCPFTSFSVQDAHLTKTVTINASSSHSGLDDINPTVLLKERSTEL
Protocol: The in vitro study of cyclooxygenase (COX) activity was determined by using arachidonic acid (AA) as the substrate and N,N,N’,N’-tetramethylphenylenediamine (TMPD) as the co-substrate. […] The absorption due to the spontaneous oxidation of TMPD was subtracted from the initial rate of oxidation observed in the presence of AA. […] A blank determination was used first to serve as a negative control. Indomethacin was used as a reference COX-2 inhibitor (positive control).
The role of COX-2 in neurodegenerative diseases has been reported, and COX-2 inhibition is considered of high importance as a therapeutic tool. The designed derivatives were tested for their COX-2 inhibition activity on the ovine COX-2 enzyme. […] Indomethacin was used as a reference compound.

What does the source list for `COC(=O)CCCNC(=O)/C=C/c1ccc(Br)cc1` [Compound 14b]?
AAPH inhibition (%, at 100 µM) [1]: 11%; LOX inhibition (%) [2]: 12%

Which results are given for `COC(=O)CCCNC(=O)/C=C/c1ccc(O)cc1` [Compound 25b]?
AAPH inhibition (%, at 100 µM) [1]: 66%; LOX inhibition (%) [2]: 10%

With `CCOC(=O)CNC(=O)/C=C/c1ccc(OCc2ccc(Br)cc2)cc1` [Compound 11a, Ethyl (E)-(3-(4-((4-bromobenzyl)oxy)phenyl)acryloyl)glycinate] as the compound, how does the “AAPH inhibition (%, at 100 µM)” value [1] read?
The value was 38%.

What about the IC50 [3] of the same compound?
The IC50 was 6 µM.

With `CCOC(=O)CNC(=O)/C=C/c1cccc2ccccc12` [Compound 17a] as the compound, how does the “LOX inhibition (%)” value [2] read?
Its value is 23%.

For `CCOC(=O)CNC(=O)/C=C/c1ccc(C#N)cc1` [Compound 26a], which “AAPH inhibition (%, at 100 µM)” value [1] is on record?
Its value is 37%.

What about the IC50 [3] of the same compound?
The IC50 was 77.5 µM.

With `COC(=O)CC[C@H](NC(=O)/C=C/c1ccc(C(F)(F)F)cc1)C(=O)OC` [Compound 13c] as the compound, how does the “AAPH inhibition (%, at 100 µM)” value [1] read?
The value was 37%.

What about the IC50 [2] of the same compound?
Its IC50 is 80 µM.

For `COC(=O)CCCNC(=O)/C=C/c1ccc(OC)c(OC)c1` [Compound 18b], which “AAPH inhibition (%, at 100 µM)” value [1] is on record?
Its value is 75%.

What about the “LOX inhibition (%)” value [2] of the same compound?
The value was 40%.

With `COC(=O)CC[C@H](NC(=O)/C=C/c1ccc(C#N)cc1)C(=O)OC` [Compound 26c] as the compound, how does the “LOX inhibition (%)” value [2] read?
The value was 10%.

With `COC(=O)CC[C@H](NC(=O)/C=C/c1cc(OC)ccc1OC)C(=O)OC` [Compound 19c] as the compound, how does the “AAPH inhibition (%, at 100 µM)” value [1] read?
Its value is 64%.

What about the “LOX inhibition (%)” value [2] of the same compound?
The value was 7%.

Which results are given for `COC(=O)CCCNC(=O)/C=C/c1ccc(C#N)cc1` [Compound 26b]?
AAPH inhibition (%, at 100 µM) [1]: 3%; IC50 [3]: 32.5 µM

What does the source list for `COC(=O)CC[C@H](NC(=O)/C=C/c1ccc(O)cc1)C(=O)OC` [Compound 25c]?
AAPH inhibition (%, at 100 µM) [1]: 78%; IC50 [2]: 63 µM

What does the source list for `CC(=O)Oc1ccc(/C=C/C(=O)O)cc1` [Compound 30, (E)-3-(4-acetoxyphenyl) acrylic acid]?
AAPH inhibition (%, at 100 µM) [1]: 33%; inhibition at 100 µM ([2]; read-out: LOX inhibition (%)): 23%

What does the source list for `COC(=O)CCCNC(=O)/C=C/c1ccc(Cl)cc1` [Compound 16b]?
AAPH inhibition (%, at 100 µM) [1]: 8%; IC50 [3]: 92.5 µM

For `CCOC(=O)CNC(=O)/C=C/C=C/c1ccccc1` [Compound 23a], which “AAPH inhibition (%, at 100 µM)” value [1] is on record?
Its value is 85%.

And the IC50 [3]?
The IC50 was 35 µM.

For `O=C(O)/C=C/c1ccc(F)cc1` [Compound 27], which inhibition at 100 µM [3] is on record?
Its inhibition at 100 µM is 46%.

Which results are given for `COC(=O)CCCNC(=O)/C=C/c1ccc(OC(C)=O)cc1` [Compound 30b]?
AAPH inhibition (%, at 100 µM) [1]: 9%; IC50 [3]: 50 µM

For `CCOC(=O)CNC(=O)/C=C/c1ccc(F)cc1` [Compound 27a], which “AAPH inhibition (%, at 100 µM)” value [1] is on record?
Its value is 78%.

With `COC(=O)CCCNC(=O)/C=C/c1cccc(Br)c1` [Compound 15b] as the compound, how does the “AAPH inhibition (%, at 100 µM)” value [1] read?
Its value is 27%.

What about the “COX-2 inhibition (%)” value ([3]; % inhibition at 100 µM) of the same compound?
The value was 43%.

For `O=C(O)/C=C/c1ccc(Cl)cc1` [Compound 16], which inhibition at 100 µM [3] is on record?
The inhibition at 100 µM was 46%.

For `CCOC(=O)CNC(=O)/C=C/c1ccc(Cl)cc1` [Compound 16a], which IC50 [3] is on record?
Its IC50 is 63 µM.

With `CCOC(=O)CNC(=O)/C=C/c1ccc(OC(C)=O)cc1` [Compound 30a] as the compound, how does the IC50 [3] read?
Its IC50 is 58 µM.

With `COC(=O)CC[C@H](NC(=O)/C=C/c1ccc(OCc2ccc(Br)cc2)cc1)C(=O)OC` [Compound 11c] as the compound, how does the “AAPH inhibition (%, at 100 µM)” value [1] read?
The value was 92%.

For `O=C(O)/C=C/c1ccc(O)c(O)c1` [Compound 28, trans-caffeic acid], which “AAPH inhibition (%, at 100 µM)” value [1] is on record?
Its value is 80%.

And the inhibition at 100 µM [3]?
The inhibition at 100 µM was 6%.
